In patent publication US11447533B2, “Antimicrobial and anticancer peptides and conjugates and compositions, methods, articles and kits relating thereto” (George Mason Research Foundation, Inc., priority 2018, dated 2022):

How the values were obtained:
E. coli ATCC 25922 = test: Antimicrobial efficacy (resazurin virtual colony count); format: cell-based, Escherichia coli; conditions: PBS (high / physiologically relevant ionic strength), pH 7.4
Protocol: Antimicrobial Studies. The phosphate buffers used for antimicrobial assays were supplemented with non-nitrogenous energy source, 0.1% (w/v) glucose. To conduct antimicrobial assays, bacterial strains were first suspended in respective buffers. E. coli (ATCC 25922) and B. cereus (ATCC 11778) were grown in MHB II up to OD600 nm˜1 and stored as frozen stock in 20% glycerol at −80° C. Occasionally they were thawed and enumerated by serial dilution and spreading on MHB II agar plates. The concentrations of the frozen stocks of E. coli and B. cereus strains were 1.0-1.1*10^8 CFU/mL with OD600 nm˜0.8. In case of other bacterial strains, they were grown on the days of experiment up to OD600 nm˜1-1.5 and then adjusted to OD600 nm˜0.8. The growth media of the drug-resistant bacterial strains were supplemented with few of the respective antibiotics against which they are resistant. 200 μL of the 0.8 OD600 nm culture were added to 10 mL of the respective buffer to obtain a suspension which was used to incubate with equal volumes of peptide solution in the same buffer.
Antimicrobial assays in different phosphate buffers and serum were conducted by adapting, with necessary modifications a fast high-throughput method based on Virtual Colony Count technique and later modified by incorporating the use of resazurin. At first serial dilution of a microbial strain in respective buffer was poured in the wells of 96 well polypropylene microplate and was then added with same volume of 2× MHB II supplemented with 80 μg/mL resazurin and incubated at 35° C. in a Gemini EM Microplate Reader (Molecular Devices) overnight with intermittent shaking. As the microbe grows it reduces non-fluorescent resazurin to fluorescent resorufin and the fluorescent intensity of each well were measured (excitation=570 nm, emission=590 nm) each 5 min for 15 hours. The time (t, min) to reach a certain fluorescence (RFU=20000 with respect to the starting fluorescence) was correlated with the initial bacterial concentration (in CFU/mL) in the particular well to obtain a calibration plot of the form: Log([Bacteria],CFU/mL)=b+m*t Equation 4: […]
To obtain antimicrobial efficacy of the peptides, 50 μL of serially diluted peptide in a buffer was incubated with 50 μL microbial suspension in the same buffer for 3 hours in black polypropylene 96 well plate. After incubation the wells were added with 100 μL of 2× MHB II supplemented with 80 μg/mL resazurin and then incubated with continuous fluorescence reading for overnight time period as described earlier. The surviving microbial population (CFU/mL) in each well were calculated by first finding the time to reach a fluorescence of RFU=20000 and the correlation (4) for the specific microbial strain and buffer. % Survival represents the proportion of viable cells in peptide treated cells relative to cells treated with the respective buffer alone. Equation 5: […]
Finally, the antimicrobial effectiveness of each peptide against the particular microbial strain in the specific buffer was determined by plotting % microbial survival as a function of the log of the concentration of the peptide and fitting the resulting data to a variable-slope sigmoidal regression model (equation 6). In this equation, log(EC50) represents the log of the concentration of the peptide required to kill half of the microbial population, where Smin and Smax correspond to the minimal and maximal microbial survival values (respectively), and H, Hill slope, is the parameter defining the steepness of the transition slopes of sigmoidal survival curves. % Microbial survival=Smin+(Smax−Smin)/(1+10^log(EC^50^)-log[peptide]*H) Equation 6: […]
The antimicrobial efficacies of the peptides were first tested against the model Gram-negative bacteria, E. coli ATCC 25922, in different phosphate buffers having varied ionic strengths and compositions. The phosphate buffers that were used included 10 mM sodium phosphate (calculated ionic strength˜25 mM), PBS and DPBS. […]

[1] = Endotoxin binding: competitive displacement of BODIPY TR-Cadaverine from LTA; design: species or system Staphylococcus aureus; conditions: 5 μM peptide, 10 μM BC, 10 μg/mL LTA, 10 mM Na-PO4
Protocol: (§1) FIGS. 2A-2B are graphs showing endotoxin binding. The figures depict the competitive displacement of BC from LPS/LTA by the peptides. 5 μM of each peptide was incubated with 10 μM BC and 10 μg/mL LPS from E. coli (0111:B4) or LTA from S. aureus. Fluorescence intensity was measured at excitation=580 nm and emission=620 nm. 10 μM BC without endotoxin was used as 100% displacement while 10 μM BC with 10 μg/mL LPS/LTA without any peptide as 0% displacement and the % displacement of BC by each peptide was calculated accordingly. […] had been used as a positive control. The horizontal dotted line coincides with the % displacement of BC by ATRA1 on the y-axis.
(§2) FIGS. 6A-6B are graphs showing endotoxin (LPS (FIG. 6A) and LTA (FIG. 6B)) binding. Competitive displacement of BC from LPS/LTA. In each case, 5 μM peptide was incubated with 10 μM BC and 10 μg/mL LPS from E. coli (0111:B4) or LTA from S. aureus. Fluorescence intensity was measured using excitation=580 nm and emission=620 nm. As a positive control 10 μM BC without endotoxin was used as a reference for 100% displacement while 10 μM BC with 10 μg/mL LPS/LTA without any peptide as a negative control and a reference for 0% displacement. These controls were used to calculate % BC displacement for each peptide.
(§3) Endotoxin Binding. The binding of endotoxin (LPS/LTA) was evaluated using a fluorogenic conjugateBODIPY TR-Cadaverine (BC). BC binds endotoxin loses its fluorescence. The peptide competitively displaces BC from endotoxin and the fluorescence is reestablished. Competitive inhibition of endotoxin-BC binding was utilized due to presence of peptides already in complexion with endotoxin. 25 μL of 20 μM of peptides in 10 mM Na—PO4 buffer were incubated with 25 μL of LPS (40 μg/mL) or LTA (40 μg/mL) for 15 min and then added with 50 μL of BC (20 uM). Peptides bind to LPS or LTA and competitively prevents BC bind to the endotoxin. BC loses its fluorescence on binding to endotoxin. The fluorescence intensity of the unbound BC was measured at excitation=580 nm and emission=620 nm.
(§4) BC contains two functional moieties: BODIPY (boron-dipyrromethene) and cadaverine connected via a carboxamide. BODIPY is the fluorophore of BC and fluoresces in the free state in solution but loses fluorescence when bound to LPS/LTA. The competitive displacement of BC from LPS/LTA by AMPs and thus regeneration of the fluorescence has frequently been used to estimate the binding strength of AMPs with LPS/LTA. In the present studies, 5 μM of each peptide was used to displace BC from LPS/LTA. […] Such observation contradicts the initial assumption that substitution of Lys with arginine would result in increased efficiency of LPS binding. However, with sequential substitutions of Lys with arginine, starting with ATRA1-AR, peptide variants show increased LPS binding with each additional arginine substitution. In terms of LPS binding: ATRA1-AR<ATRA1-AR2<ATRA1-AR3. In ATRA1-R3, the lysine residues at 9th, 5th and 1st positions of ATRA1 were substituted with arginine. In ATRA1-R6 all of the lysine residues were replaced with arginine.

[2] = Endotoxin binding: competitive displacement of BODIPY TR-Cadaverine from LPS; design: species or system Escherichia coli; conditions: 5 μM peptide, 10 μM BC, 10 μg/mL LPS, low ionic-strength 10 mM Na-PO4
Protocol: as §1, §2, §3, §4

[3] = system: primary lung epithelium cells; test: Cytotoxicity (Alamar blue); format: cell-based, human; conditions: ~16 hours (overnight), reduced serum conditions
Protocol: FIGS. 11A-11B are graphs showing cytotoxicity against primary lung epithelium cells in serum-free condition. Cells were seeded in complete growth medium (Minimal essential medium supplemented with 10% fetal bovine serum) at near-confluence into a 96-well plate and allowed to settle for 24-hours. Media was then replaced to OptiMEM I reduced serum medium containing peptide or vehicle alone (DBPS) and cells were incubated overnight (16 hours). A resazurin based dye (Alamar blue) was added directly to media and conversion of resazurin to resorufin was evaluated following two hours. % Survival represents the proportion of viable cells in peptide treated cells relative to cells treated with vehicle alone. […] Each peptide was tested in triplicate.
FIG. 12 is a graph showing comparison of toxicities against Lung Primary Epithelial cells and Lung Cancerous Epithelial Cells, derived from H358 cell-line. […] Each peptide was tested in triplicate.
Cytotoxicity. Cells were seeded in complete growth medium (Minimal Essential Medium, MEMα, supplemented with 10% Fetal Bovine Serum) into a culture-treated 96-well plate at a density of 25000 cells per well. After 24 hours, culture media was aspirated and replaced with media containing the selected peptide. No-serum experiments were conducted in Opti-MEM I reduced serum media (ThermoFisher, 31985062) and 10% serum experiments were performed in complete growth medium. In all cases, DBPS was used as a vehicle only control and buffer to serially dilute the peptides. After exposure to the peptides or vehicle-alone for the defined period, Alamar blue dye (resazurin) was added directly to the media and allowed to incubate for two hours. Following incubation, A570/A600 measurements were made to calculate reduction of resazurin dye to resorufin. A ratio of reduction in treated versus untreated cells was calculated in order to determine overall cell viability. The human cells were always maintained in a 37° C. incubator under 5% CO2.

Row | Compound | antimicrobial efficacy, in words (E. coli ATCC 25922) | LTA binding (BC displacement), in words [1] | LPS binding (BC displacement), in words [2] | cytotoxicity, in words [3]
1 | KKAKKFFKKLK (SEQ ID NO: 5) [ATRA1-AK] | lost activity in PBS | highest LTA binding | highest LPS binding among all the peptides | –
2 | CC[C@H](C)[C@H](NC(=O)CN)C(=O)NCC(=O)N[C@@H](C)C(=O)N[C@H](C(=O)N[C@@H](CC(C)C)C(=O)N[C@@H](CCCCN)C(=O)N[C@H](C(=O)N[C@@H](CC(C)C)C(=O)N[C@H](C(=O)N[C@H](C(=O)NCC(=O)N[C@@H](CC(C)C)C(=O)N1CCC[C@H]1C(=O)N[C@@H](C)C(=O)N[C@@H](CC(C)C)C(=O)N[C@H](C(=O)N[C@@H](CO)C(=O)N[C@@H](Cc1c[nH]c2ccccc12)C(=O)N[C@H](C(=O)N[C@@H](CCCCN)C(=O)N[C@@H](CCCNC(=N)N)C(=O)N[C@@H](CCCCN)C(=O)N[C@@H](CCCNC(=N)N)C(=O)N[C@@H](CCC(N)=O)C(=O)N[C@@H](CCC(N)=O)C(N)=O)[C@@H](C)CC)[C@@H](C)CC)[C@@H](C)O)[C@@H](C)O)C(C)C)C(C)C [melittin] | – | – | – | killed the cells at the highest degree
